Where two headings read alike, the source gives them in different places.
What was measured:
PPC-1 = test: cells; conditions: Homo sapiens, PPC-1, 96 h, read-out: IC50 ± SEM (nM), PPC-1
DU 145 = test: cells; conditions: Homo sapiens, DU-145, 96 h
B16-F1 = test: SRB cell growth inhibition (cytotoxicity) assay; format: cell-based, mouse; conditions: Mus musculus
Description: (§1) The only compounds which belong to the invention are the ones falling under the scope of formula (XI).

Bovine brain tubulin = test: In vitro tubulin polymerization assay; format: biochemical; conditions: 10 µM
Description: (§2) In Vitro Tubulin Polymerization Assay.
as §2
In vitro microtubule polymerization assay.

in vivo [1] = conditions: mouse, ip
PC-3 = test: cells; conditions: Homo sapiens, PC-3, 96 h, read-out: IC50 ± SEM (nM), PC-3
Description: as §1
Cells were stained with SRB solution.
Cells. […] Cells between the third and fifth passages were used for experiments.
Cell growth inhibition studies. […] Cells were stained with sulphorhodamine B (SRB) solution.

PC-3 cells = test: In vivo drug resistance study (cells dissociated from PC-3 xenografts); format: cell-based; conditions: Homo sapiens
OVCAR-8 = test: SRB growth inhibition, MDR model parent line; format: cell-based, human; conditions: Homo sapiens, OVCAR-8; Table 5A; read-out: IC50 (nM), OVCAR-8
WM-164 = test: SRB cell growth inhibition (cytotoxicity) assay; format: cell-based, human; conditions: Homo sapiens
[2] = test system: tubulin (colchicine, vinblastine and paclitaxel binding sites); test: MS competitive binding assay
Description: MS competition binding assay. […] Each reaction was run in triplicate.

LNCaP = test: cells; conditions: Homo sapiens, 96 h, read-out: IC50 ± SEM (nM), LNCaP
[3] = test system: A375 human melanoma xenograft; test: In vivo antitumor efficacy, A375 melanoma xenograft; design: species or system mouse; conditions: 2k 15 mg/kg i.p.
Experimental: DTIC at 60 mg/kg was used as a positive control again.
(§3) PC-3 and A375 tumor xenograft studies.
(§4) In vivo antitumor activity [tumor growth inhibition (% T/C), tumor growth delay (T-C value), and tumor cell kill (total log cell kill)].

[4] = for CL (mL/min/kg), systemic clearance / Vss (L/kg), volume of distribution: […] (1h, 2r), 5 mg/kg (5Ha, 5Hc)
[5] = Rotarod test (in vivo neurotoxicity); conditions: mouse
[6] = test system: PC-3 prostate tumor xenograft; test: In vivo antitumor efficacy, PC-3 xenograft; design: species or system mouse; conditions: control 680 mm^3
Description: as §3, §4

A375 = test: SRB cell growth inhibition (cytotoxicity) assay; format: cell-based, human; conditions: Homo sapiens
NCI/ADR-RES = test: SRB growth inhibition, P-gp over-expressing MDR line; format: cell-based, human; conditions: NCI/ADR-RES vs OVCAR-8; 5760 min
[7] = PBS pH 7.4; Figure 18; 90 min
[8] = test system: melanoma cell lines (A375, WM-164, B16-F1) and prostate cancer cell lines (LNCaP, DU 145, PC-3, PPC-1); test: SRB cytotoxicity, melanoma and prostate cell panel (averages); format: cell-based; conditions: Prostate cell
Description: as §1

in vivo [9] = conditions: rat, plasma, po, 10 mg/kg
MDA-MB-435 = test: SRB growth inhibition, sensitive parent melanoma line; format: cell-based; conditions: Homo sapiens, MDA-MB-435, read-out: IC50 ± SEM (nM) (n=3), MDA-MB-435; sensitive parent melanoma cell line
MDA-MB-435/LCC6MDR1 = test: SRB growth inhibition, multidrug-resistant melanoma line; format: cell-based; conditions: MDA-MB-435/LCC6 MDR1, read-out: IC50 ± SEM (nM) (n=3), MDA-MB-435/LCC6MDR1; multidrug-resistant melanoma cell line
[10] = read-out: IC50 ± SEM (nM) Du 145
[11] = B16-F1, read-out: IC50 ± SEM (nM) (n=3), B16-F1, Table 14A
[12] = B16-F1 melanoma cells, 48 h, SRB, read-out: IC50 ± SEM (nM) B16-F1
[13] = A-375, read-out: IC50 ± SEM (nM) (n=3), A375, Table 14A
[14] = A-375, A375 melanoma cells, 48 h, SRB, read-out: IC50 ± SEM (nM) A375

Row | SMILES | IC50 (PPC-1) [nM] | IC50 (PC-3) [nM] | IC50 (LNCaP) [nM] | CL (mL/min/kg), systemic clearance ([4]; rat, IV) [mL/min/kg] | Vss (L/kg), volume of distribution ([4]; rat, IV) [L/kg] | IC50 (DU 145; [10]) [nM] | IC50 (MDA-MB-435) [nM] | IC50 (B16-F1; [11]) [nM] | IC50 (B16-F1; [12]) [nM] | IC50 (MDA-MB-435/LCC6MDR1) [nM] | IC50 (A375; [13]) [nM] | IC50 (A375; [14]) [nM] | also measured
1 | COc1cc(C(=O)c2csc(-c3ccccc3)n2)cc(OC)c1OC [1h, (2-Phenyl-thiazol-4-yl)-(3,4,5-trimethoxy-phenyl)-methanone] | 43 ± 5 | 21 ± 1 | 28 ± 4 | 7.7 ± 1.0 | 4.9 ± 1.9 | – | – | – | – | – | – | – | IC50 (DU 145; read-out: IC50 ± SEM (nM), DU 145): 71 ± 4 nM; IC50 (B16-F1; B16-F1, SRB assay, Tables 1, 2, 3, 5B, 5C, read-out: IC50 ± SEM (nM), B16-F1): 55 ± 5 nM; inhibited tubulin polymerization (Bovine brain tubulin; 15 min, Figure 28B): 90%; tubulin polymerization inhibited (Bovine brain tubulin; 20 min incubation, compared to vehicle): 47%; MTD at 96 h (in vivo [1]): ≥ 30 mg/kg; IC50 (PC-3 cells; PC-3, PC-3 cells from ATCC): 29.1 ± 1.1 nM; IC50 (PC-3 cells; PC-3, dissociated cells from 1h treated tumors (15 mg/kg, 21 days)): 30.4 ± 0.5 nM; IC50 (PC-3 cells; PC-3, dissociated cells from vehicle treated tumors): 29.1 ± 0.8 nM; IC50 (OVCAR-8): 35 ± 2 nM; IC50 (WM-164; WM164, 96 h, SRB assay, 96 h, Table 2, read-out: IC50 ± SEM (nM), WM-164): 64 ± 4 nM; competition for tubulin binding sites [2]: specifically competed with colchicine binding to tubulin; % T/C ([3]; A375, 1h 20 mg/kg): 28%; tumor volume ([3]; A375, nude mice, 1h 20 mg/kg, 34 days, control 2183 mm^3): 775 mm^3; RatPK_IV5mgk_Cl ([4]; rat, IV, 2.5mpk): 7.7 (2.5mpk) mL/min/kg; volume of distribution ([4]; rats, […] iv): 7.6 L/kg; clearance ([4]; rats, […] iv, Table 22): 6 mL/min/kg; time on the rotating rod versus vehicle group [5]: no significant difference; Tumor volume by day 21 ([6]; PC-3, 5 mg/kg i.p.): 370 mm^3; Tumor volume by day 21 ([6]; PC-3, 15 mg/kg i.p.): 176 mm^3; IC50 (A375; A-375, 96 h, SRB assay, 96 h, Tables 1, 2, 3, 5B, 5C, read-out: IC50 ± SEM (nM), A375): 28 ± 5 nM
2 | COc1cc(C(=O)c2csc(-c3ccc(CN)cc3)n2)cc(OC)c1OC.Cl [2r, (2-(4-(Aminomethyl)phenyl)thiazol-4-yl)(3,4,5-trimethoxyphenyl)methanone hydrochloride] | – | – | – | 22 ± 13 | 0.33 ± 025 | – | – | – | – | – | – | – | Resistance factor (NCI/ADR-RES): 0.4; solubility in PBS [7]: over 35 µg/mL; IC50 ([8]; read-out: IC50 range over tested melanoma and prostate cell lines): 13 to 80 nM; bioavailability (in vivo [9]): 0.2%
3 | COc1ccc(-c2nc(C(=O)c3ccc(F)cc3)cn2S(=O)(=O)c2ccccc2)cc1 [11cb, (4-fluorophenyl)(2-(4-methoxyphenyl)-1-(phenylsulfonyl)-1H-imidazol-4-yl)methanone] | 32 ± 0.7 | 33 ± 2 | 31 ± 2 | – | – | 52 ± 3 | 38 | 71 ± 8 | 71 ± 8 | 30 | 36 ± 5 | 36 ± 5 | IC50 ([8]; read-out: IC50 (average over cell lines)): 43 nM
4 | O=C(c1ccc(F)cc1)c1cn(S(=O)(=O)c2ccccc2)c(-c2ccc(Cl)cc2)n1 [11fb, (2-(4-chlorophenyl)-1-(phenylsulfonyl)-1H-imidazol-4-yl)(4-fluorophenyl)methanone] | 54 ± 1 | 76 ± 2 | 48 ± 1 | – | – | 64 ± 1 | 50 | 107 ± 12 | 107 ± 12 | 35 | 88 ± 9 | 88 ± 9 | IC50 (WM-164; WM164, read-out: IC50 ± SEM (nM) (n=3), WM-164, Table 14A): 74 ± 8 nM; IC50 (WM-164; WM164 melanoma cells, 48 h, SRB, read-out: IC50 ± SEM (nM) WM164): 70 ± 6 nM
